Results: ChEMBL document CHEMBL4507315 (2021)

What was measured:
[1] = biological target: Mitogen-activated protein kinase kinase kinase 10 (Homo sapiens) (UniProt Q02779); conditions: Compound concentration 100.0 nM
[2] = biological target: Calcium/calmodulin-dependent protein kinase type 1D (Homo sapiens) (UniProt Q8IU85); conditions: Compound concentration 100.0 nM
[3] = biological target: Serine/threonine-protein kinase Sgk3 (Homo sapiens) (UniProt Q96BR1); conditions: Compound concentration 100.0 nM
Sequence of Serine/threonine-protein kinase Sgk3 (Homo sapiens) (Q96BR1 whole entry): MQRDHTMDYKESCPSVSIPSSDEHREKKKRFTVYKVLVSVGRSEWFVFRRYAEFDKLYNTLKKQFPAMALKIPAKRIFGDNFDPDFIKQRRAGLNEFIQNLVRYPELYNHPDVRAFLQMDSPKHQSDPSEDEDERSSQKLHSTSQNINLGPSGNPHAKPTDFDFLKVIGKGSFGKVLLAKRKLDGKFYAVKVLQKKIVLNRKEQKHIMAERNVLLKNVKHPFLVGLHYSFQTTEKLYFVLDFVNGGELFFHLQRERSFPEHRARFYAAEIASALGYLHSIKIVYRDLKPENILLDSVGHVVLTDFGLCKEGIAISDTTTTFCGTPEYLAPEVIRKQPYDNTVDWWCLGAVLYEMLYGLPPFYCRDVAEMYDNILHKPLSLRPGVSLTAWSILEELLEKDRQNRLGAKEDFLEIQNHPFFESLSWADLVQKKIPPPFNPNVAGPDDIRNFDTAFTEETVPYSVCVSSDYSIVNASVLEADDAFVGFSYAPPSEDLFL

[4] = biological target: Ribosomal protein S6 kinase alpha-5 (Homo sapiens) (UniProt O75582); conditions: Compound concentration 100.0 nM
Sequence of Ribosomal protein S6 kinase alpha-5 (Homo sapiens) (O75582 whole entry, looked up): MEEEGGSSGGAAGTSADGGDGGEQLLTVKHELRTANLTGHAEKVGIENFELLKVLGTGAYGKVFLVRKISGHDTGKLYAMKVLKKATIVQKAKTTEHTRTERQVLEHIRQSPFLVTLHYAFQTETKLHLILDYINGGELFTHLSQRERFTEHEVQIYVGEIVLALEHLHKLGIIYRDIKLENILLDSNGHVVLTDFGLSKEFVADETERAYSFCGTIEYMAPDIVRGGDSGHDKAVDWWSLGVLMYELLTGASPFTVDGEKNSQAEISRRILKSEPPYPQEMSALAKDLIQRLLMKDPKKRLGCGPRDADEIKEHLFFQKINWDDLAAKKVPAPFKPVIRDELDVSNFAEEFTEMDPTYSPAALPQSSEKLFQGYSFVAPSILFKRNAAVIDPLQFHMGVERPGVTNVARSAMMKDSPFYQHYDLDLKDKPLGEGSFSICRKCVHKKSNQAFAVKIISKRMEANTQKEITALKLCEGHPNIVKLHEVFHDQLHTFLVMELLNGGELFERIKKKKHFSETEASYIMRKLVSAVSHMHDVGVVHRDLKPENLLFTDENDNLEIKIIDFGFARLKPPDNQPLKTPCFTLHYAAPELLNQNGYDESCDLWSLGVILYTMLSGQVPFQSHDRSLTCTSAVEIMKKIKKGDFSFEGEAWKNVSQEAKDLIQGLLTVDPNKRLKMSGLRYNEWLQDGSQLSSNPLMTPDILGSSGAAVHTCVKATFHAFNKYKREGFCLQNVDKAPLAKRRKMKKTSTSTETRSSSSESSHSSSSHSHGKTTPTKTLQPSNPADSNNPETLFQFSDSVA

[5] = biological target: Serine/threonine-protein kinase Nek4 (Homo sapiens) (UniProt P51957); conditions: Compound concentration 100.0 nM
[6] = biological target: Serine/threonine-protein kinase D2 (Homo sapiens) (UniProt Q9BZL6); conditions: Compound concentration 100.0 nM
[7] = biological target: Serine/threonine-protein kinase pim-2 (Homo sapiens) (UniProt Q9P1W9); conditions: Compound concentration 100.0 nM
Sequence of Serine/threonine-protein kinase pim-2 (Homo sapiens) (Q9P1W9 whole entry, looked up): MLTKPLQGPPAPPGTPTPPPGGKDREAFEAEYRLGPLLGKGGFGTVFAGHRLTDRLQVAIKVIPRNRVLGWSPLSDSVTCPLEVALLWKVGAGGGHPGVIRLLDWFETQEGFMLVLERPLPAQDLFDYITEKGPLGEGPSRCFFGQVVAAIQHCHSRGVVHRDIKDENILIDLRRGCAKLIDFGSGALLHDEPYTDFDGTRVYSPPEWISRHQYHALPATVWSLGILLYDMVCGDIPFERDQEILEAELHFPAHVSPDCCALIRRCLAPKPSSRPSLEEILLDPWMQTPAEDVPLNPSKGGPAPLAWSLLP

[8] = biological target: Interleukin-1 receptor-associated kinase 4 (Homo sapiens) (UniProt Q9NWZ3); conditions: Compound concentration 100.0 nM
[9] = biological target: Myotonin-protein kinase (Homo sapiens) (UniProt Q09013); conditions: Compound concentration 100.0 nM
[10] = biological target: Dual specificity tyrosine-phosphorylation-regulated kinase 1A (Homo sapiens) (UniProt Q13627); conditions: Compound concentration 100.0 nM
[11] = biological target: Cyclin-dependent kinase 11B (Homo sapiens) (UniProt P21127); conditions: Compound concentration 100.0 nM
[12] = biological target: Peripheral plasma membrane protein CASK (Homo sapiens) (UniProt O14936); conditions: Compound concentration 100.0 nM
[13] = biological target: Atypical kinase COQ8B, mitochondrial (Homo sapiens) (UniProt Q96D53); conditions: Compound concentration 100.0 nM
Sequence of Atypical kinase COQ8B, mitochondrial (Homo sapiens) (Q96D53 whole entry): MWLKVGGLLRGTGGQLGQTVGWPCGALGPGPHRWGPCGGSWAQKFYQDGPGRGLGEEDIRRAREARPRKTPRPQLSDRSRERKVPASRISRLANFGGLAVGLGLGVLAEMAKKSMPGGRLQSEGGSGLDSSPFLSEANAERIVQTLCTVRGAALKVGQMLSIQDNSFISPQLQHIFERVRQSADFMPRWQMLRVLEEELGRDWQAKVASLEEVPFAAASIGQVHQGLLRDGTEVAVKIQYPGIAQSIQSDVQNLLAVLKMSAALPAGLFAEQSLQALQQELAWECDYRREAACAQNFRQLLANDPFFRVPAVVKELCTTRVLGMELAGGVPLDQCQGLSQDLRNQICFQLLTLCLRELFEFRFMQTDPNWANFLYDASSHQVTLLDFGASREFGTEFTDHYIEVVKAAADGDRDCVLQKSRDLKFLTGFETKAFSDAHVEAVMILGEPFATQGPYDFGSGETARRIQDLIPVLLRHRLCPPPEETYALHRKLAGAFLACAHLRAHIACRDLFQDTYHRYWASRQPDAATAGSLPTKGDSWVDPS

[14] = biological target: Mitogen-activated protein kinase kinase kinase kinase 5 (Homo sapiens) (UniProt Q9Y4K4); conditions: Compound concentration 100.0 nM
[15] = system: Phosphatidylinositol 4,5-bisphosphate 3-kinase catalytic subunit alpha isoform (Homo sapiens), P42336 [E545A]; conditions: Compound concentration 100.0 nM
[16] = biological target: GABA-A receptor; anion channel (Rattus norvegicus) (UniProt O09028+P15431+P18506+P18508+P19969+P20236+P23574+P23576+P28471+P28473+P30191+P62813+P63079+P63138+Q91ZM7+Q9ES14); conditions: Compound concentration 10.0 uM
[17] = biological target: Protein kinase C eta type (Homo sapiens) (UniProt P24723); conditions: Compound concentration 100.0 nM
Sequence of Protein kinase C eta type (Homo sapiens) (P24723 whole entry): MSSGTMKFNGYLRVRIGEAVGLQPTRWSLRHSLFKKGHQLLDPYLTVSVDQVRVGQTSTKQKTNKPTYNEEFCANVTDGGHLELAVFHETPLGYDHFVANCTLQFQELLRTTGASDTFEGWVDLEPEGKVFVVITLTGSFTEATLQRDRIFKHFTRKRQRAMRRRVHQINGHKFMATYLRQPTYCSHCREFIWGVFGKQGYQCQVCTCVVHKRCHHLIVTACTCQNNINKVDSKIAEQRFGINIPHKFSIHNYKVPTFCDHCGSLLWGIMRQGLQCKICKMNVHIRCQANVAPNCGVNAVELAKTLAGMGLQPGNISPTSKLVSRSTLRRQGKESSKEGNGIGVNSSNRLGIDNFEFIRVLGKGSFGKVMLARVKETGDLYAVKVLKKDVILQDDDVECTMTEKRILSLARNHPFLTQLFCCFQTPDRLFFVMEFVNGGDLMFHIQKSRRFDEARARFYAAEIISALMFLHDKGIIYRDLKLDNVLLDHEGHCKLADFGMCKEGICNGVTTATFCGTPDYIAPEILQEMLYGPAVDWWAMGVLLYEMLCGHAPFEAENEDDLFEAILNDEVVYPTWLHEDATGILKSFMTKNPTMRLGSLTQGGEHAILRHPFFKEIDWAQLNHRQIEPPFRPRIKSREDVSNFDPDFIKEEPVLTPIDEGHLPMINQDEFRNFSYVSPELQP

[18] = biological target: Dual specificity mitogen-activated protein kinase kinase 2 (Homo sapiens) (UniProt P36507); conditions: Compound concentration 100.0 nM
[19] = biological target: Dual specificity tyrosine-phosphorylation-regulated kinase 2 (Homo sapiens) (UniProt Q92630); conditions: Compound concentration 100.0 nM
[20] = biological target: Aurora kinase C (Homo sapiens) (UniProt Q9UQB9); conditions: Compound concentration 100.0 nM
[21] = biological target: Mitogen-activated protein kinase kinase kinase kinase 4 (Homo sapiens) (UniProt O95819); conditions: Compound concentration 100.0 nM
[22] = biological target: Tyrosine-protein kinase receptor UFO (Homo sapiens) (UniProt P30530); conditions: Compound concentration 100.0 nM
[23] = biological target: Dual specificity protein kinase CLK3 (Homo sapiens) (UniProt P49761); conditions: Compound concentration 100.0 nM
Sequence of Dual specificity protein kinase CLK3 (Homo sapiens) (P49761 whole entry, looked up): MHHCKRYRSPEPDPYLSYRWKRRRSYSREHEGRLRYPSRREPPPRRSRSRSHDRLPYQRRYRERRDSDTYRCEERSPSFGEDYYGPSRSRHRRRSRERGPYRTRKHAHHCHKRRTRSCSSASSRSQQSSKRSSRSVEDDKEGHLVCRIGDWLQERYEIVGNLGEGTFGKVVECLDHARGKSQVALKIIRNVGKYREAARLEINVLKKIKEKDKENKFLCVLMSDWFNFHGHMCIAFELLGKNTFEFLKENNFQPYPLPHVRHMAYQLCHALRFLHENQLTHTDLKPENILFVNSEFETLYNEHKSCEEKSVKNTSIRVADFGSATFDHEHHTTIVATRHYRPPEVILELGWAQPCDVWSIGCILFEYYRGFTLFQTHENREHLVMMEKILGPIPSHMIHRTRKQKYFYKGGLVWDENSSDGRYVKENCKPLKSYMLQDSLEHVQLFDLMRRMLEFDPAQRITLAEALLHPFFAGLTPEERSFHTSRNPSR

[24] = biological target: STE20/SPS1-related proline-alanine-rich protein kinase (Homo sapiens) (UniProt Q9UEW8); conditions: Compound concentration 100.0 nM
[25] = biological target: Serine/threonine-protein kinase NLK (Homo sapiens) (UniProt Q9UBE8); conditions: Compound concentration 100.0 nM
[26] = biological target: D(3) dopamine receptor (Homo sapiens) (UniProt P35462); conditions: Compound concentration 10.0 uM
Sequence of D(3) dopamine receptor (Homo sapiens) (P35462 whole entry): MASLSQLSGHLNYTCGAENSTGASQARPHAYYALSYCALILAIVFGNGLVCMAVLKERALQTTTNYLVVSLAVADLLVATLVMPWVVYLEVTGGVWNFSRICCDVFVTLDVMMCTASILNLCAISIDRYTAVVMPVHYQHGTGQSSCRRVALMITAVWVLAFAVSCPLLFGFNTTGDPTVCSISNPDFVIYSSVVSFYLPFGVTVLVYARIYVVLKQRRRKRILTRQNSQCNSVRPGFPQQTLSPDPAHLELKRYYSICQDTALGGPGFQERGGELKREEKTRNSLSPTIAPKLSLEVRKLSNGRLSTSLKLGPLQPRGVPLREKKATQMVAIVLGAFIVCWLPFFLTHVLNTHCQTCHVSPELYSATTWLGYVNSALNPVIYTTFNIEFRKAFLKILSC

[27] = biological target: Proto-oncogene tyrosine-protein kinase ROS (Homo sapiens) (UniProt P08922); conditions: Compound concentration 100.0 nM
[28] = biological target: Protein kinase C epsilon type (Homo sapiens) (UniProt Q02156); conditions: Compound concentration 100.0 nM
[29] = biological target: Serine/threonine-protein kinase 4 (Homo sapiens) (UniProt Q13043); conditions: Compound concentration 100.0 nM
[30] = biological target: Eukaryotic translation initiation factor 2-alpha kinase 1 (Homo sapiens) (UniProt Q9BQI3); conditions: Compound concentration 100.0 nM
[31] = biological target: Dual serine/threonine and tyrosine protein kinase (Homo sapiens) (UniProt Q6XUX3); conditions: Compound concentration 100.0 nM
[32] = biological target: Mitogen-activated protein kinase 13 (Homo sapiens) (UniProt O15264); conditions: Compound concentration 100.0 nM
[33] = biological target: Serine/threonine-protein kinase DCLK2 (Homo sapiens) (UniProt Q8N568); conditions: Compound concentration 100.0 nM
[34] = biological target: Dual specificity mitogen-activated protein kinase kinase 1 (Homo sapiens) (UniProt Q02750); conditions: Compound concentration 100.0 nM
Sequence of Dual specificity mitogen-activated protein kinase kinase 1 (Homo sapiens) (Q02750 whole entry): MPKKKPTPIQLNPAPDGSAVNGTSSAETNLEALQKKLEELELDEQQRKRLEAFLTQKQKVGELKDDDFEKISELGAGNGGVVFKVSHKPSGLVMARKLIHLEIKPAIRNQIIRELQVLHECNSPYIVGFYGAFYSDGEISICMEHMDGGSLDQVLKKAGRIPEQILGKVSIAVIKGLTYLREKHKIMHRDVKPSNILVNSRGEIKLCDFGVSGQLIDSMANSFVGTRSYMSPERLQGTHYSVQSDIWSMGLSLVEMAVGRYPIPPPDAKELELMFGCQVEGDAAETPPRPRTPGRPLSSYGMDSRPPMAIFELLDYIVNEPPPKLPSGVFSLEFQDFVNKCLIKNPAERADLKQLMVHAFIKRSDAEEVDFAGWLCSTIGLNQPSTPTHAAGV

[35] = system: Proto-oncogene tyrosine-protein kinase receptor Ret (Homo sapiens), P07949 [V804L]; conditions: Compound concentration 100.0 nM
[36] = biological target: Casein kinase II subunit alpha' (Homo sapiens) (UniProt P19784); conditions: Compound concentration 100.0 nM
[37] = biological target: Mitogen-activated protein kinase kinase kinase 20 (Homo sapiens, UniProt Q9NYL2); conditions: Compound concentration 100.0 nM
[38] = system: Epidermal growth factor receptor (Homo sapiens), P00533 [UNDEFINED MUTATION]; conditions: Compound concentration 100.0 nM
[39] = biological target: Serine/threonine-protein kinase TAO2 (Homo sapiens) (UniProt Q9UL54); conditions: Compound concentration 100.0 nM
[40] = system: Tyrosine-protein kinase ABL1 (Homo sapiens), P00519 [M351T]; conditions: Compound concentration 100.0 nM
[41] = biological target: Serine/threonine-protein kinase Chk1 (Homo sapiens) (UniProt O14757); conditions: Compound concentration 100.0 nM
[42] = biological target: Mitogen-activated protein kinase kinase kinase 11 (Homo sapiens) (UniProt Q16584); conditions: Compound concentration 100.0 nM
[43] = biological target: Fibroblast growth factor receptor 4 (Homo sapiens) (UniProt P22455); conditions: Compound concentration 100.0 nM
Sequence of Fibroblast growth factor receptor 4 (Homo sapiens) (P22455 22-802 limits assumed): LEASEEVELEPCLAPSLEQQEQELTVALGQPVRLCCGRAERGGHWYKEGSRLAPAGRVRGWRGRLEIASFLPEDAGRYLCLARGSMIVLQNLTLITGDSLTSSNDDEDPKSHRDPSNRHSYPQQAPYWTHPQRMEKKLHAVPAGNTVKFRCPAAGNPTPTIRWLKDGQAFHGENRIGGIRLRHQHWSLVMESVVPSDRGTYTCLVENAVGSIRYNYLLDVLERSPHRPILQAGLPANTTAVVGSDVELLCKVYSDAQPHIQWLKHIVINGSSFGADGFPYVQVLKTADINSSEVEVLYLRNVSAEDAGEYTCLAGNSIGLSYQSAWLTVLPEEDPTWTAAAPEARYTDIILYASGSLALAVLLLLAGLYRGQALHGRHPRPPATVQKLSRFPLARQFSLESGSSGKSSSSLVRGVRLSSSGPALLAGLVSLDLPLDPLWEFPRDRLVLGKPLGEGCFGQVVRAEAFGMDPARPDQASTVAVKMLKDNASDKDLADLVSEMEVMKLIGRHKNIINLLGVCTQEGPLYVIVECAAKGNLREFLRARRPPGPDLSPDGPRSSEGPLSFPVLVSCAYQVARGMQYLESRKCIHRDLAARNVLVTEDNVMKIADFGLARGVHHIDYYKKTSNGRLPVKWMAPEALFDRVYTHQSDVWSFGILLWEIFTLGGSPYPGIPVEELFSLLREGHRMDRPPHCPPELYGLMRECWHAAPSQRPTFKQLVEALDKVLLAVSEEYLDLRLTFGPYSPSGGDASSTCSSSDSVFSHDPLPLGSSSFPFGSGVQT

O=C(NCCCC1CCCCC1)c1ccc(CNC(=O)c2cnn(-c3ccccc3)c2C(F)(F)F)cc1 [SR-321]
residual activity [1]: 87% | residual activity [2]: 100% | residual activity [3]: 92% | residual activity [4]: 100% | residual activity [5]: 100% | residual activity [6]: 100% | residual activity [7]: 100% | residual activity [8]: 100% | residual activity [9]: 83% | residual activity [10]: 99% | residual activity [11]: 100% | residual activity [12]: 100% | residual activity [13]: 100% | residual activity [14]: 88% | residual activity [15]: 100% | inhibition [16]: -4.39% | residual activity [17]: 100% | residual activity [18]: 93% | residual activity [19]: 100% | residual activity [20]: 100% | residual activity [21]: 81% | residual activity [22]: 95% | residual activity [23]: 100% | residual activity [24]: 100% | residual activity [25]: 100% | inhibition [26]: 2.65% | residual activity [27]: 100% | residual activity [28]: 88% | residual activity [29]: 100% | residual activity [30]: 95% | residual activity [31]: 100% | residual activity [32]: 100% | residual activity [33]: 100% | residual activity [34]: 89% | residual activity [35]: 100% | residual activity [36]: 88% | residual activity [37]: 100% | residual activity [38]: 100% | residual activity [39]: 89% | residual activity [40]: 100% | residual activity [41]: 100% | residual activity [42]: 100% | residual activity [43]: 100%

Nc1c(C(=O)NCc2ccc(C(=O)NCCCC3CCCCC3)cc2)cnn1-c1ccccc1 [SR-318]
residual activity [1]: 85% | residual activity [2]: 93% | residual activity [3]: 90% | residual activity [4]: 94% | residual activity [5]: 100% | residual activity [6]: 100% | residual activity [7]: 100% | residual activity [8]: 100% | residual activity [9]: 77% | residual activity [10]: 100% | residual activity [11]: 100% | residual activity [12]: 78% | residual activity [13]: 100% | residual activity [14]: 100% | residual activity [15]: 100% | inhibition [16]: 21.7% | residual activity [17]: 98% | residual activity [18]: 100% | residual activity [19]: 97% | residual activity [20]: 100% | residual activity [21]: 87% | residual activity [22]: 87% | residual activity [23]: 95% | residual activity [24]: 96% | residual activity [25]: 96% | inhibition [26]: 21.2% | residual activity [27]: 83% | residual activity [28]: 100% | residual activity [29]: 100% | residual activity [30]: 100% | residual activity [31]: 100% | residual activity [32]: 100% | residual activity [33]: 100% | residual activity [34]: 100% | residual activity [35]: 100% | residual activity [36]: 100% | residual activity [37]: 42% | residual activity [38]: 98% | residual activity [39]: 100% | residual activity [40]: 86% | residual activity [41]: 100% | residual activity [42]: 76% | residual activity [43]: 97%
